According to patent US10208056B2, “Condensed tricyclic compounds as protein kinase inhibitors” (FUNDACIÓN DEL SECTOR PÚBLICO ESTATAL CENTRO NACIONAL DE …, priority 2015, dated 2019):
Where two headings read alike, the source gives them in different places.

Key:
Haspin kinase = Haspin kinase (Homo sapiens (Human), UniProt Q8TF76); test: Haspin kinase assay (ADP-Glo); format: biochemical; conditions: ATP 150 μM
Outline: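 ADP-Glo luminescence measured the intrinsic ATPase activity, without peptide substrate, of the GST-tagged human Haspin kinase domain (20 nM) at 150 μM ATP. Reactions ran 60 min at 30 °C in HEPES pH 7.4 buffer with 10 mM MgCl2 and 1% DMSO. Inhibition was calculated against no-compound controls across 1:3 dilution series.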

CDK19/Cyclin C = CDK19/Cyclin C (Homo sapiens (Human), UniProt Q9BWU1); test: CDK19/Cyclin C binding assay (LanthaScreen Eu-Kinase Binding Assay); conditions: read-out: CDK19-CYCC IC50
Outline: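 LanthaScreen TR-FRET tracer-displacement format with 2 nM Cdk19-Cyclin C, 20 nM tracer and 2 nM Eu-anti-GST antibody. The buffer was 50 mM HEPES pH 7.5, 10 mM MgCl2, 1 mM EGTA, 0.01% Brij-35, with 1% DMSO final. Compounds were tested as 1:3 serial dilutions and incubated for 60 min at 25 °C.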

intracellular CDK8 [1] = target: T1, intracellular CDK8 (Homo sapiens (Human), UniProt P49336); test: Endogenous phosphoSTAT1 inhibition in SW620 cells growing in 10% FBS; format: cell-based; conditions: semiquantitative, read-out: SW620 P-STAT1(S727)
Experimental: (§1) Endogenous phosphoSTAT1 inhibition can be screened in cells growing in 10% FBS. Cells are plated as described before and treated for 8 h with compounds as described before. Then cells are lysated and phospho STAT1 is evaluated as described before. The percentage of phosphorylated STAT1 vs total STAT1 in cells treated with DMSO is taken as hundred percent of phosphorylation. The percentage of STAT1 phosphorylation is finally plotted against concentration for each compound and EC50s for intracellular CDK8 inhibition are calculated using ActivityBase from IDBS.

SW620 [2] = test: In vitro cell proliferation assay (CellTiter-Glo), SW620; format: cell-based, human; conditions: growth inhibition, semiquantitative, read-out: GI50 SW620
Experimental: (§2) The in vitro potency of the compounds was measured by the cell proliferation assay CellTiter-Glo® Luminescent Cell Viability Assay, commercially available from Promega Corp., Madison, Wis. This homogeneous assay method is based on the recombinant expression of Coleoptera luciferase (U.S. Pat. No. 5,583,024; U.S. Pat. No. 5,674,713; U.S. Pat. No. 5,700,670) and determines the number of viable cells in culture based on quantitation of the ATP present, an indicator of metabolically active cells (Crouch et al (1993) J. Immunol. Meth. 160:81-88; U.S. Pat. No. 6,602,677). The CellTiterGlo® Assay was conducted […] it amenable to automated high throughput screening (HTS) (Cree et al (1995) AntiCancer Drugs 6:398-404).
(§3) The homogeneous assay procedure involves adding the single reagent (CellTiter-Glo® Reagent) directly to cells cultured in serum-supplemented medium. Cell washing, removal of medium and multiple pipetting steps are not required. The system detects as few as 15 cells/well in a 96-well format in 10 minutes after adding reagent and mixing.
(§4) The homogeneous “add-mix-measure” format results in cell lysis and generation of a luminescent signal proportional to the amount of ATP present. The amount of ATP is directly proportional to the number of cells present in culture. The CellTiter-Glo® Assay generates a “glow-type” luminescent signal, produced by the luciferase reaction, which has a half-life generally greater than five hours, depending on cell type and medium used. Viable cells are reflected in relative luminescence units (RLU). The substrate, Beetle Luciferin, is oxidatively decarboxylated by recombinant firefly luciferase with concomitant conversion of ATP to AMP and generation of photons. The extended half-life eliminates the need to use reagent injectors and provides flexibility for continuous or batch mode processing of multiple plates. This cell proliferation assay can be used with various multiwell formats, e.g. 96 or 384 well format. Data can be recorded by luminometer or CCD camera imaging device. The luminescence output is presented as relative light units (RLU), measured over time.

intracellular HASPIN [3] = target: T2, intracellular HASPIN (Homo sapiens (Human), UniProt Q8TF76); test: Endogenous phosphoH3 inhibition in SW620 cells growing in 10% FBS; format: cell-based; conditions: semiquantitative, read-out: SW620 pH3(T3)
Experimental: as §1, with “phosphoH3” for “phosphoSTAT1”, “H3” for “STAT1 is”, “H3” for “STAT1”, “HASPIN” for “CDK8”

CDK8/Cyclin C = CDK8/Cyclin C (Homo sapiens (Human), UniProt P49336); test: CDK8/Cyclin C binding assay (LanthaScreen Eu-Kinase Binding Assay); conditions: binding assay
Experimental: The enzyme has been purchase from Invitrogen (PV4402) as a dimer of full-length His-tagged recombinant human proteins.
Assays were performed in 384-well plates. The final read out was generated using an EnVision plate reader (Perkin-Elmer).

MV4:11 = test: In vitro cell proliferation assay (CellTiter-Glo), MV4:11; format: cell-based; conditions: growth inhibition, semiquantitative, read-out: GI50 MV4:11
Experimental: as §2, §3, §4

Molm13 = test: In vitro cell proliferation assay (CellTiter-Glo), Molm13; format: cell-based; conditions: growth inhibition, semiquantitative, read-out: GI50 Molm13
Experimental: as §2, §3, §4

MDA-MB-231 = test: In vitro cell proliferation assay (CellTiter-Glo), MDA-MB-231; format: cell-based; conditions: growth inhibition, semiquantitative, read-out: GI50 MDA-MB-231
Experimental: as §2, §3, §4

SW620 [4] = test: Combination assay, SW620; format: cell-based, human; conditions: Homo sapiens, SW-620; SW620, chemotherapeutic alone; read-out: Chemo GI50
Experimental: (§5) The combination index (CI) of combinations of certain example compounds and various chemotherapeutic agents in the CellTitetI-Glo® in vitro cell proliferation assays may be tested. A combination index score is calculated by the Chou and Talalay method (CalcuSyn software, Biosoft). The strength of synergy is scored using the ranking system Chou and Talalay: CI less than 0.8 indicates synergy, CI between 0.8 and 1.2 indicates additivity and CI greater than 1.2 indicates antagonism.
(§6) The EC50 values of representative combinations are also calculated. The individually measured EC50 values of the chemotherapeutic agent and the example compounds are compared to the EC50 value of the combination. The cell lines are characterised by tumor type. Combination assays are performed as described in: “Pim 1 kinase inhibitor ETP-45299 suppresses cellular proliferation and synergizes with PI3K inhibition”. Blanco-Aparicio, Carmen; Collazo, Ana Maria Garcia; Oyarzabal, Julen; Leal, Juan F.; Albaran, Maria Isabel; Lima, Francisco Ramos; Pequeno, Belen; Ajenjo, Nuria; Becerra, Mercedes; Alfonso, Patricia; Reymundo, Maria Isabel; Palacios, Irene; Mateos, Genoveva; Quinones, Helena; Corrionero, Ana; Carnero, Amancio; Pevarello, Paolo; Lopez, Ana Rodriguez; Fominaya, Jesus; Pastor, Joaquin; Bischoff, James R. Cancer Letters (Shannon, Ireland) 2011, 300(2), 145-153

DU145 = test: Combination assay, DU145; format: cell-based; conditions: Homo sapiens, DU-145; DU145, chemotherapeutic alone; read-out: Chemo GI50
Experimental: as §5
The EC50 values of representative combinations are also calculated. The individually measured EC50 values of the chemotherapeutic agent and the example compounds are compared to the EC50 value of the combination. The cell lines are characterised by tumor type. […] Blanco-Aparicio, Carmen; Collazo, Ana Maria Garcia; Oyarzabal, Julen; Leal, Juan F.; Albaran, Maria Isabel; Lima, Francisco Ramos; Pequeno, Belen; Ajenjo, Nuria; Becerra, Mercedes; Alfonso, Patricia; Reymundo, Maria Isabel; Palacios, Irene; Mateos, Genoveva; Quinones, Helena; Corrionero, Ana; Carnero, Amancio; Pevarello, Paolo; Lopez, Ana Rodriguez; Fominaya, Jesus; Pastor, Joaquin; Bischoff, James R. Cancer Letters (Shannon, Ireland) 2011, 300(2), 145-153

HCT116 = test: Combination assay, HCT116; format: cell-based; conditions: Homo sapiens, HCT-116; HCT116, chemotherapeutic alone; read-out: Chemo GI50
Experimental: as §5, §6

intracellular HASPIN [5] = target: T2, intracellular HASPIN; test: Cellular HASPIN inhibition assay, western blot phospho H3T3 in synchronized SW620 cells; format: cell-based; conditions: semiquantitative, read-out: SW620 PH3(T3) in synchronized cells
Experimental: Compounds can be screened for their ability to inhibit intracellular HASPIN using a western blot assay to detect phosphorylation of the HASPIN substrate H3T3 in synchronized cells. SW620 cells are plated at 200000 cells per well in 6-well plates (Solmeglas 13118) in RPMI media (Sigma-Aldrich R6504) supplemented with 10% foetal bovine serum (Sigma-Aldrich F7524), Penicillin/Streptomycin solution diluted 1:100 (Gibco 15070-063), and fungizone (Gibco, 15290-018), and allowed to adhere overnight at 37° C. in 5% CO2. Cells are then treated 16 h hours with Nocadazole (Sigma-Aldrich M1404) at 250 ng/ml to arrest them in mitosis. Proteasoma inhibitor MG132 (Sigma-Aldrich C2211) is added to a final concentration of […] to keep cells arrested in mitosis. Compounds are then added to the cell media from a final concentration of 10 μM in 10-fold serial dilutions and the cells are incubated at 37° C. in 5% CO2. After 1 hour and 30 minutes of treatment with the compounds, the cells are washed in PBS, lysed adding 100 μl of protein lysis buffer (62.5 mM Tris pH 6.8 al 6.25%, 2% SDS y 10% glycerol) incubation 10 minutes at room temperature and heating at 95° C. 10 min. The protein content of the lysates is determined by DC protein assay (Biorad, Ref. 5000116). The proteins are resolved by SDS-PAGE and transferred to nitrocellulose membrane (VWR International eurolab, Ref. 732-4007). The membranes are incubated overnight at 4° C. with antibodies specific for total H3 (Millipore #07424), phosphothreonine-3 H3 (Cell Signaling Ref. 14269) they are washed and then incubated with IRDye800 conjugated anti-mouse (Pierce/Cultek, 35521) and Alexa Fluor 680 goat anti-rabbit IgG secondary antibodies (Invitrogen, A21076). The bands are visualized and quantified using an Odyssey infrared imaging system (Li-Cor Biosciences). The percentage of phosphorylated H3 vs total H3 in synchronized cells is taken as hundred percent of phosphorylation. The percentage of H3 phosphorylation is finally plotted against concentration for each compound and EC50s for intracellular HASPIN inhibition are calculated using ActivityBase from IDBS.

intracellular CDK8 [6] = target: T1, intracellular CDK8; test: Cellular CDK8 inhibition assay, western blot P-STAT1 (S727) in IFN-γ treated SW620 cells; format: cell-based; conditions: SW620, IFNγ treated, semiquantitative; read-out: SW620 P-STAT1(S727) w IFNγ
Experimental: Compounds can be screened for their ability to inhibit intracellular CDK8 using a western blot assay to detect phosphorylation of the CDK8 substrate STAT1 (S727) in IFN-γ treated cells. SW620 cells are plated at 1*10^6 cells per well in 6-well plates (Solmeglas 13118) in RPMI media (Sigma-Aldrich R6504) supplemented with 10% foetal bovine serum (Sigma-Aldrich F7524), Penicillin/Streptomycin solution diluted 1:100 (Gibco 15070-063), and fungizone (Gibco, 15290-018), and allowed to adhere overnight at 37° C. in 5% CO2. Compounds are then added to the cell media from a final concentration of 10 μM in 10-fold serial dilutions and the cells are incubated at 37° C. in 5% CO2. After 1 hour, IFNγ (R&D systems Ref. RYD-285-IF-100) is added to a final concentration of […]. After 3 hours of treatment with IFNγ, the cells are washed in PBS, lysed adding 100 μl of protein lysis buffer (62.5 mM Tris pH 6.8 al 6.25%, 2% SDS y 10% glycerol) incubation 10 minutes at room temperature and heating at 95° C. 10 min. The protein content of the lysates is determined by DC protein assay (Biorad, Ref. 5000116). The proteins are resolved by SDS-PAGE and transferred to nitrocellulose membrane (VWR International eurolab, Ref. 732-4007). The membranes are incubated overnight at 4° C. with antibodies specific for total STAT1 (BD Transduction laboratory #610115), phosphoserine-727 STAT1 (Cell Signaling Ref. 9177) they are washed and then incubated with IRDye800 conjugated anti-mouse (Pierce/Cultek, 35521) and Alexa Fluor 680 goat anti-rabbit IgG secondary antibodies (Invitrogen, A21076). The bands are visualized and quantified using an Odyssey infrared imaging system (Li-Cor Biosciences). The percentage of phosphorylated STAT1 vs total STAT1 in cells treated with IFNγ is taken as hundred percent of phosphorylation. The percentage of STAT1 phosphorylation is finally plotted against concentration for each compound and EC50s for intracellular CDK8 inhibition are calculated using ActivityBase from IDBS.

Sequence of Haspin kinase (Q8TF76 484-798): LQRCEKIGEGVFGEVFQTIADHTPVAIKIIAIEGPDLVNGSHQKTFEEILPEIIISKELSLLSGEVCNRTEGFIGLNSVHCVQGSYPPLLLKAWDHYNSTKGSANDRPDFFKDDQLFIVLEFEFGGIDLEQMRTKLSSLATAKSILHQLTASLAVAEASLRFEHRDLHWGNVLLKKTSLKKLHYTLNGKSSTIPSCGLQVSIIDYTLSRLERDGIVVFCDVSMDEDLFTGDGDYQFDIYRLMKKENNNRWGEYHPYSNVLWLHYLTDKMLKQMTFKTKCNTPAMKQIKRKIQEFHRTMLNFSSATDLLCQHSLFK
Sequence of CDK19/Cyclin C (Q9BWU1 whole entry): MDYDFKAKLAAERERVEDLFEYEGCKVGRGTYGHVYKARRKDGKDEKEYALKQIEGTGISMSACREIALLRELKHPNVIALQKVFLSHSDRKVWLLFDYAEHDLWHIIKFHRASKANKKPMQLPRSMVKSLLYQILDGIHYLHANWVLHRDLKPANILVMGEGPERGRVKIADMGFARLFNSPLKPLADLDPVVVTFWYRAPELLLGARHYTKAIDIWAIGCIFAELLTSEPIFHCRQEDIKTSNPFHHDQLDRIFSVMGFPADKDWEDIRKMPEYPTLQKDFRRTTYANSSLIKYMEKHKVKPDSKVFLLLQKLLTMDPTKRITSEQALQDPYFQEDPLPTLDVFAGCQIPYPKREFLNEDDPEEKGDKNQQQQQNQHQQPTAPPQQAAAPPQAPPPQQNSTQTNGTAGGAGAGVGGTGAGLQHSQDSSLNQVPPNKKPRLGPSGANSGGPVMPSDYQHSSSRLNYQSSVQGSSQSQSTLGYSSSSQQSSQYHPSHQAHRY
Sequence of CDK19/Cyclin C (P24863 whole entry partner): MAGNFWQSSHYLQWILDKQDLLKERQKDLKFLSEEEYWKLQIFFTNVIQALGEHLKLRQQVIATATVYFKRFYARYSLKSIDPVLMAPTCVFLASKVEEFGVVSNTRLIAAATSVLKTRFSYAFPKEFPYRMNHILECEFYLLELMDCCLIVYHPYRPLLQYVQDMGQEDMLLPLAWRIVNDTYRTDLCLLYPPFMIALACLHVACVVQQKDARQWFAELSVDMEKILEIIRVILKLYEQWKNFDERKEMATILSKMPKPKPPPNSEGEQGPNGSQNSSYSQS
T2 sequence (Q8TF76 whole entry): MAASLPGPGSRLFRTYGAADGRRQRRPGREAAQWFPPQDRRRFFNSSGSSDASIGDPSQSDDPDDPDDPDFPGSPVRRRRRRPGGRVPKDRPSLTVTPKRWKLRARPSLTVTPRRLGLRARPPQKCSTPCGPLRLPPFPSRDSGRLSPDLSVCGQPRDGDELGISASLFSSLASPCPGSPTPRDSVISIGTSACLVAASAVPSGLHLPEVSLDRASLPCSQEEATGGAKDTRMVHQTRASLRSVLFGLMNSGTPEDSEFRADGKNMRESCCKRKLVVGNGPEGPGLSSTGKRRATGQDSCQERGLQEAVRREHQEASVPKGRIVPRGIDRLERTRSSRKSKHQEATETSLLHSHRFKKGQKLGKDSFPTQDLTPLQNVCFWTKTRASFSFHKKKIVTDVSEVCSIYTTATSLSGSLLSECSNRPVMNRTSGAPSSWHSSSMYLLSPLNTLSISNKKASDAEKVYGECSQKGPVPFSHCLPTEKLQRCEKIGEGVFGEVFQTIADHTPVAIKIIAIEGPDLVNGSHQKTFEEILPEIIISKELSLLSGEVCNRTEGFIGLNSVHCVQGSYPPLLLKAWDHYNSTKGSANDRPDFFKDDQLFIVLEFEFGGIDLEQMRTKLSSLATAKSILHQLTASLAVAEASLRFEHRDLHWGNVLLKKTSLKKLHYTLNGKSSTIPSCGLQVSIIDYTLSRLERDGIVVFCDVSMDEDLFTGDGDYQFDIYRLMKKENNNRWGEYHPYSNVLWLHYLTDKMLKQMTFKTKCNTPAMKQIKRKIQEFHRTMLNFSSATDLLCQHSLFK
T1 sequence (P49336 whole entry): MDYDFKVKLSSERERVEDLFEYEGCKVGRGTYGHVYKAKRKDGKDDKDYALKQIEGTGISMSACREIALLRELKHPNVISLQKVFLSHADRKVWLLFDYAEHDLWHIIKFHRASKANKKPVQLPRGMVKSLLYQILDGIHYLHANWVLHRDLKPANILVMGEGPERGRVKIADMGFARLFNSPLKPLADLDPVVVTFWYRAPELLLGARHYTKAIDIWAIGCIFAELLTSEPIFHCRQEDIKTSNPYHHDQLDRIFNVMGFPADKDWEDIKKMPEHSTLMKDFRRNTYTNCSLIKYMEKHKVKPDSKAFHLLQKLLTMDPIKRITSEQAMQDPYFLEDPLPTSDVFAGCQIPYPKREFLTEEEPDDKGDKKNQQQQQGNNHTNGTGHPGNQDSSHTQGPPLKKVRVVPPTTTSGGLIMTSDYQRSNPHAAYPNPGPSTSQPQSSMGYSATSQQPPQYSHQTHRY
T1 sequence (P24863 whole entry partner): as the sequence (P24863 whole entry partner) above
T1 sequence (Q93074 whole entry partner): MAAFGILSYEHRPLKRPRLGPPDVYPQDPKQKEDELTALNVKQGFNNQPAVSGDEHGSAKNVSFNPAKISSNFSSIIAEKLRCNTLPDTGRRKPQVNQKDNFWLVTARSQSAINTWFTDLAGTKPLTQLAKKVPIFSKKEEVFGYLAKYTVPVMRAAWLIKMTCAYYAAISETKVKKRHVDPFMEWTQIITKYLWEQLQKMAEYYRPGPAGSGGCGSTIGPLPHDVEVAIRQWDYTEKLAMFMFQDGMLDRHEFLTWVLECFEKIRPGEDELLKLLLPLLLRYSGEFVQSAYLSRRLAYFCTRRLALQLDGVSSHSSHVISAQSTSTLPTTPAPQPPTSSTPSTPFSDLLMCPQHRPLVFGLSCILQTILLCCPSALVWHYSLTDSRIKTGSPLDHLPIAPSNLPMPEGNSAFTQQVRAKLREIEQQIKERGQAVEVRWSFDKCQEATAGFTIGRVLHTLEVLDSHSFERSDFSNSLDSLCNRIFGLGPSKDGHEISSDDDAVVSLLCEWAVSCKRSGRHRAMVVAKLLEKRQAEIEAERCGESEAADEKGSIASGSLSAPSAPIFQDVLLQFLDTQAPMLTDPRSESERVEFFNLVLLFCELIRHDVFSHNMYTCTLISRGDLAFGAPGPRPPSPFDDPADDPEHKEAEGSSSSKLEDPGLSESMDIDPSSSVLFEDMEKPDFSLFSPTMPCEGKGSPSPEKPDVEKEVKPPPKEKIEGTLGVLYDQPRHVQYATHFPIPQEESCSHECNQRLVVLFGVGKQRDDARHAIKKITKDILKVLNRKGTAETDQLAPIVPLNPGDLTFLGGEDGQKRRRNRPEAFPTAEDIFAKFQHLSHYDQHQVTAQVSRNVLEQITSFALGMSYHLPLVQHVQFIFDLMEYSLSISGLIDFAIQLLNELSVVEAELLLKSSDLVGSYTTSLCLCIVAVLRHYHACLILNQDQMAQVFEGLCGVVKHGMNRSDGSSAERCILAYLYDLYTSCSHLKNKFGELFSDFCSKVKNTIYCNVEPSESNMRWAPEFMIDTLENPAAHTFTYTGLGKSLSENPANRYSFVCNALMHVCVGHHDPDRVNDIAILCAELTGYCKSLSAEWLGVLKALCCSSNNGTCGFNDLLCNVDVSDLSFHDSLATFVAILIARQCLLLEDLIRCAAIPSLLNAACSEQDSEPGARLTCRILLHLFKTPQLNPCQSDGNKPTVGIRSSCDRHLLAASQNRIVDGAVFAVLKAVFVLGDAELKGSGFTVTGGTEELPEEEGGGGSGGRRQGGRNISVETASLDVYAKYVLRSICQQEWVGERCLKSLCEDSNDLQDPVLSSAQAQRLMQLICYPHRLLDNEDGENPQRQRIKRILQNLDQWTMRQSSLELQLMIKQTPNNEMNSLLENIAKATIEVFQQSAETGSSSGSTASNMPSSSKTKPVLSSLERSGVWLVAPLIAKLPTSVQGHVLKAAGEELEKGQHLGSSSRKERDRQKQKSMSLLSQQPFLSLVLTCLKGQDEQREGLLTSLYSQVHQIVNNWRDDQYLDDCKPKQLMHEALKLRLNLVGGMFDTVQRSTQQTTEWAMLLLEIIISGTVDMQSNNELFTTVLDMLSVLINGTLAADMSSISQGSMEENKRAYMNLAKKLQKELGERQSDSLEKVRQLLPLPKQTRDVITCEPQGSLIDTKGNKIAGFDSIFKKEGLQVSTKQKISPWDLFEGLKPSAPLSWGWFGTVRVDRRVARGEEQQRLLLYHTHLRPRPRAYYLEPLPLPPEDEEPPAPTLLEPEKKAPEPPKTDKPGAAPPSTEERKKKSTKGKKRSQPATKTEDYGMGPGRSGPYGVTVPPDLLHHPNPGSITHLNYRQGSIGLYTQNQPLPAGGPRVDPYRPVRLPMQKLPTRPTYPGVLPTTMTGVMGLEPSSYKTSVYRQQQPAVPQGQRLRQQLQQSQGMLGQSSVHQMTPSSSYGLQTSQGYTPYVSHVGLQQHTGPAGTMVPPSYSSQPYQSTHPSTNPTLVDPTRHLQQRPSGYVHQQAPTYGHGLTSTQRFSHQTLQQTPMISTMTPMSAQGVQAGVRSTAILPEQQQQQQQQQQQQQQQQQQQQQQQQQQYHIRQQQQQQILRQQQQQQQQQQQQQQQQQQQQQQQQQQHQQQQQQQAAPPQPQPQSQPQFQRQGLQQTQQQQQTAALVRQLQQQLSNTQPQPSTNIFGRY
Sequence of CDK8/Cyclin C (P49336 whole entry): as the sequence (P49336 whole entry) above
Sequence of CDK8/Cyclin C (P24863 whole entry partner): as the sequence (P24863 whole entry partner) above

NC(=O)c1cc2c(n1CCF)-c1ccncc1OC21CCCCC1 [Example 84]
IC50 (Haspin kinase): 42.1 nM
IC50 (CDK19/Cyclin C): 148 nM
EC50 (intracellular CDK8 [1]): < 500 nM
GI50 (SW620 [2]; Homo sapiens, SW-620): 1000 to 10000 nM
EC50 (intracellular HASPIN [3]): < 500 nM
IC50 (CDK8/Cyclin C): 1.41 nM
GI50 (MV4:11; Homo sapiens, MV4-11): < 1000 nM
GI50 (Molm13; Homo sapiens, MOLM-13): < 1000 nM
GI50 (MDA-MB-231; Homo sapiens, MDA-MB-231): 1000 to 10000 nM

COc1cc(Nc2ncc3c(n2)-c2ccc(Cl)cc2C(c2c(F)cccc2OC)=NC3)ccc1C(=O)O [Alisertib, alisertib, reference compound]
GI50 (SW620 [4]): 500 nM
GI50 (DU145): 12500 nM
GI50 (HCT116): 12500 nM

CCn1c(C(N)=O)cc2c1-c1ccncc1O[C@@H]2C1CCCCC1 (single isomer, unassigned) [Example 90]
IC50 (Haspin kinase): 522 nM
IC50 (CDK19/Cyclin C): 1.41 nM
EC50 (intracellular CDK8 [1]): < 500 nM
GI50 (SW620 [2]): 10000 to 100000 nM
EC50 (intracellular HASPIN [3]): < 500 nM
IC50 (CDK8/Cyclin C): 1.36 nM
GI50 (MV4:11): < 1000 nM
GI50 (Molm13): 1000 to 10000 nM
GI50 (MDA-MB-231): 10000 to 100000 nM

COCCn1c(C(N)=O)cc2c1-c1ccncc1OC2(C)C [Example 45]
IC50 (Haspin kinase): 182 nM
IC50 (CDK19/Cyclin C): 11.5 nM
IC50 (CDK8/Cyclin C): 4.64 nM
EC50 (intracellular HASPIN [5]): < 500 nM
EC50 (intracellular CDK8 [6]): < 500 nM

NC(=O)c1cc2c([nH]1)-c1ccncc1O[C@@H]2C1CCOCC1 (single isomer, unassigned) [Example 71]
IC50 (Haspin kinase): 5760 nM
IC50 (CDK8/Cyclin C): 281 nM
EC50 (intracellular HASPIN [5]): 500 to 10000 nM
EC50 (intracellular CDK8 [6]): 500 to 10000 nM
